These results are taken from patent US4255444A, “4-Hydroxy-2-pyrone derivatives having antihyperlipaemic activity” (Sankyo Company Limited, priority 1978, dated 1981).

The assay deals with cholesterol biosynthesis (crude enzyme extracted from rat liver). In words: Inhibition of cholesterol biosynthesis by crude enzyme extracted from rat liver (radioactive acetic acid incorporation, digitonin precipitation). Format: biochemical. The note with it: 37° C., 60 minutes, compound added at beginning of reaction. As for the experimental part: Crude enzyme extracted from rat liver was reacted with radioactive acetic acid at 37° C. for 60 minutes. The radioactive cholesterol thus biosynthesized was saponified and precipitated with digitonin, and the radioactivity was measured to determine the amount of cholesterol produced. The reaction was repeated, but adding one of the compounds of the invention listed in the following Table at the beginning of the reaction, and the amount of cholesterol biosynthesized was again determined, to give a quantitative measurement of the inhibitory effect of the compounds of the invention. The concentrations (μg/ml) of the compounds of the invention and of a known compound (clofibrate) which gave approximately 50% inhibition of cholesterol biosynthesis are reported in the following Table as I50 values [see Bricker et al, The Journal of Biological Chemistry, 247, 4914 (1972)]. The compounds of the invention are identified in the following Table by the numbers heretofore assigned to them.
For `CC(Oc1ccccc1)C1CC(O)CC(=O)O1` (centres unmarked) [Compound No. 2, 4-Hydroxy-6-(1-phenoxyethyl)-3,4,5,6-tetrahydro-2H-pyran-2-one], the “I50 (concentration giving approximately 50% inhibition of cholesterol biosynthesis)” value came out at 42.3 µg/mL. Take `CC(C)(Oc1ccc(Cl)cc1)C1CC(O)CC(=O)O1` (centres unmarked) [Compound No. 4, 6-[1-(4-Chlorophenoxy)-1-methylethyl]-4-hydroxy-3,4,5,6-tetrahydro-2H-pyran-2-one]: the “I50 (concentration giving approximately 50% inhibition of cholesterol biosynthesis)” value is 21.3 µg/mL.

In the case of `Cc1ccc2ccccc2c1CCC1CC(O)CC(=O)O1` (centres unmarked) [Compound No. 1, 4-Hydroxy-6-[2-(2-methyl-1-naphthyl)ethyl]-3,4,5,6-tetrahydro-2H-pyran-2-one], the “I50 (concentration giving approximately 50% inhibition of cholesterol biosynthesis)” value was 0.75 µg/mL. Take `CCOC(=O)C(C)(C)Oc1ccc(Cl)cc1` [Clofibrate, reference compound]: the “I50 (concentration giving approximately 50% inhibition of cholesterol biosynthesis)” value fell in the range of 250 to 300 µg/mL.

Turning to `O=C1CC(O)CC(CCc2cccc3ccccc23)O1` (centres unmarked) [Compound No. 3, 4-Hydroxy-6-[2-(1-naphthyl)ethyl]-3,4,5,6-tetrahydro-2H-pyran-2-one], the “I50 (concentration giving approximately 50% inhibition of cholesterol biosynthesis)” value was 6.4 µg/mL.
